Laboratory results published in ChEMBL document CHEMBL1221276, “Structure-based design, synthesis, and biological evaluation of lipophilic-tailed monocationic inhibitors of neuronal nitric oxide synthase” (Bioorg Med Chem, 2010).

What was measured:
Nitric oxide synthase 1 = Nitric oxide synthase 1 (Rattus norvegicus, UniProt P29476); test: Inhibition of rat recombinant nNOS expressed in Escherichia coli by hemoglobin capture assay
Nitric oxide synthase 3 = target: T1, Nitric oxide synthase 3 (Bos taurus, UniProt P29473); test: Inhibition of bovine recombinant eNOS expressed in Escherichia coli by hemoglobin capture assay
T1 sequence (P29473 whole entry): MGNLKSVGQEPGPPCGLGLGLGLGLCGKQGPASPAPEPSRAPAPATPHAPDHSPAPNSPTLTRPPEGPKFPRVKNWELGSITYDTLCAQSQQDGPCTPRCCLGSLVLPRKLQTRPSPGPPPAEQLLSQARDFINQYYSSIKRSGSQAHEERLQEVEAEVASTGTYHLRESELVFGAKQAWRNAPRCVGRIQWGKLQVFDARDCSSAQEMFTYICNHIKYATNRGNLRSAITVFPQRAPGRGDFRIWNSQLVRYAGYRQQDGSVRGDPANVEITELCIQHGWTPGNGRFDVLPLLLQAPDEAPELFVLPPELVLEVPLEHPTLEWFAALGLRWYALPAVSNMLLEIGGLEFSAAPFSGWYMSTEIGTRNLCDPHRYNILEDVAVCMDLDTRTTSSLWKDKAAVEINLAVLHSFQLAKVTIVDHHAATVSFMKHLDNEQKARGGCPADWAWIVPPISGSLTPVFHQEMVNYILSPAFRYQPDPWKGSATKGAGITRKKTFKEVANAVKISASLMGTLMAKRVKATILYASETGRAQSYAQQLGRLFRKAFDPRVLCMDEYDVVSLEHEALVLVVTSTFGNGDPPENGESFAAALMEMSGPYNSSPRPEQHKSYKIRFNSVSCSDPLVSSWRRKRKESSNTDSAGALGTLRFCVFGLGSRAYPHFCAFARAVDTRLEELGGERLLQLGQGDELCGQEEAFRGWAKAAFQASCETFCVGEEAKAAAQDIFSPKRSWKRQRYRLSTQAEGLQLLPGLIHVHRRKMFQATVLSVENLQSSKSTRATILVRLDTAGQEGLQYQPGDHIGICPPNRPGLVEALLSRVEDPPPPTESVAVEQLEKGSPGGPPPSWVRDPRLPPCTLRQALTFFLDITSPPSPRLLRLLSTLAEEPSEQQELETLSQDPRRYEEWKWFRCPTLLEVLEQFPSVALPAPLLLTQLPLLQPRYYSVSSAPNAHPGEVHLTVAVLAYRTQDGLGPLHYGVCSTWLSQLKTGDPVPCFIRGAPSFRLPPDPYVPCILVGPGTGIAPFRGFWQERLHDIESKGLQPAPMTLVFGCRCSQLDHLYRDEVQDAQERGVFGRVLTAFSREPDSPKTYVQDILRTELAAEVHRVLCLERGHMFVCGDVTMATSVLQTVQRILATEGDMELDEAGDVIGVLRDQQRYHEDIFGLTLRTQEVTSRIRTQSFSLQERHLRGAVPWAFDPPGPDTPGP

[1] = target: T2, Nitric oxide synthase, inducible (Mus musculus, UniProt P29477); test: Inhibition of mouse recombinant iNOS expressed in Escherichia coli by hemoglobin capture assay
T2 sequence (P29477 whole entry): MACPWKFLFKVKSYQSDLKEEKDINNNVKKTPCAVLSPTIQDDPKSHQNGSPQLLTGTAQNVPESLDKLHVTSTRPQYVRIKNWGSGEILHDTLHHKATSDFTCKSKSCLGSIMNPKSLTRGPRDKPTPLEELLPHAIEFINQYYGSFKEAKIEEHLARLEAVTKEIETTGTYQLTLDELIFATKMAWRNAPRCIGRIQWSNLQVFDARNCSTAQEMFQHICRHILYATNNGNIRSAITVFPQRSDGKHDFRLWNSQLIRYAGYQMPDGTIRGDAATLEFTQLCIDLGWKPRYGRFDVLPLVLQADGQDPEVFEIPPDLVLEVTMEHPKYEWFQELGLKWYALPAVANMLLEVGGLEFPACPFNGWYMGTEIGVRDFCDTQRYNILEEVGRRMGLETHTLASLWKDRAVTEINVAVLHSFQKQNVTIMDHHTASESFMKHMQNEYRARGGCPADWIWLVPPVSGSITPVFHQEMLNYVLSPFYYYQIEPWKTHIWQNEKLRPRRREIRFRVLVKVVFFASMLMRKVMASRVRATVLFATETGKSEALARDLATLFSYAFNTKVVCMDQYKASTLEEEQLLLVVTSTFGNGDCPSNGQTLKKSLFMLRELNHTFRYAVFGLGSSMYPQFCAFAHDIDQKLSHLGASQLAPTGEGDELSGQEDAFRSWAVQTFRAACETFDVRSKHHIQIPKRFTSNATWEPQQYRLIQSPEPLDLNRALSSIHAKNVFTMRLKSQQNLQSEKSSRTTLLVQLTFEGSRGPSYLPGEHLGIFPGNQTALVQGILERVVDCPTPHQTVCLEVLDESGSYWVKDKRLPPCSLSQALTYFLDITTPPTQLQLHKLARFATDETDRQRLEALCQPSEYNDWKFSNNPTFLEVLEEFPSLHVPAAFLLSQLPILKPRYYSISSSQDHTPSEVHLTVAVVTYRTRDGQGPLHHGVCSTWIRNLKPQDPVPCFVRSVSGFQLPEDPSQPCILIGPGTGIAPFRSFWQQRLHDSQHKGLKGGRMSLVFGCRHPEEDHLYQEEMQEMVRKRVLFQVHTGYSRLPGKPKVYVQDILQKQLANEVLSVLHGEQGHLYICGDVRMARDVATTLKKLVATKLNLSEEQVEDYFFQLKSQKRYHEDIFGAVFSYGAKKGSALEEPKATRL

Nitric oxide synthase 1, sequence (P29476 whole entry): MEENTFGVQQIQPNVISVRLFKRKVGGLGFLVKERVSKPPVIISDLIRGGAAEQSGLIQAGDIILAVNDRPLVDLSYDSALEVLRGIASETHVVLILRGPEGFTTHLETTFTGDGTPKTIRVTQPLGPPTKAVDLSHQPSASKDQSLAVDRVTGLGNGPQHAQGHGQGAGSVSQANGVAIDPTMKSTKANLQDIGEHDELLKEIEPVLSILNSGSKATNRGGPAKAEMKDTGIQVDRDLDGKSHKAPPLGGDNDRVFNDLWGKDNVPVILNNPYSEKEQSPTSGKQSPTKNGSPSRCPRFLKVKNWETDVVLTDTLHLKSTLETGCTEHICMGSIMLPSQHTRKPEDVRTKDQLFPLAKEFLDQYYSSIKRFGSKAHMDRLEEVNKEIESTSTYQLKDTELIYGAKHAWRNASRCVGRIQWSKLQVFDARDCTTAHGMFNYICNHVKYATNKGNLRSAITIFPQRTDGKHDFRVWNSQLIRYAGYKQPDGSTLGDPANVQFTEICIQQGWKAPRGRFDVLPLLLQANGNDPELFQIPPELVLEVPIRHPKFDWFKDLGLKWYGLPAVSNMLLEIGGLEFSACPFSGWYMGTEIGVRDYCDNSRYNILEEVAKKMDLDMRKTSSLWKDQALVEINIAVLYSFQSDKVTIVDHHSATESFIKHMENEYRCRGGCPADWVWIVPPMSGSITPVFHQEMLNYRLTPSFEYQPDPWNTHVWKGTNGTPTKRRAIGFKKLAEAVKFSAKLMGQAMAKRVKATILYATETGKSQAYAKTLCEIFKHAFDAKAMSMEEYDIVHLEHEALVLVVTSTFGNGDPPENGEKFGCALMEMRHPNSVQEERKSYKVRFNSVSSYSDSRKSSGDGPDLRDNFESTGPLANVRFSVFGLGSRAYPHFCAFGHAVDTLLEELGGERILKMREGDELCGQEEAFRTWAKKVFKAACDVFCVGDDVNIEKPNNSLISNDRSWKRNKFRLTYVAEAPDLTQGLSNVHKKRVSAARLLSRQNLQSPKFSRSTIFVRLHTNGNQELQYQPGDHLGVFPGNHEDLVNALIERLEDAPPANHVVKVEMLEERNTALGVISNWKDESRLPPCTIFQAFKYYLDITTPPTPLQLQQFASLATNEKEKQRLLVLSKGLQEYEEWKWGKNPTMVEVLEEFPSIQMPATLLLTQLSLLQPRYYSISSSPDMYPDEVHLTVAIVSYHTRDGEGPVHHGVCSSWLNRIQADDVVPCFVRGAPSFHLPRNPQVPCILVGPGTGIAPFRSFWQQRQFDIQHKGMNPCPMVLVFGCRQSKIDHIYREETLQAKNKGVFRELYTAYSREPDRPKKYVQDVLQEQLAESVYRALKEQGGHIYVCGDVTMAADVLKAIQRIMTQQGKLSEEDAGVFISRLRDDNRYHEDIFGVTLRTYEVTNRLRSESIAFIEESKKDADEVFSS

Ki (Nitric oxide synthase 1)	Ki (Nitric oxide synthase 3)	Ki [1]	SMILES
0.75 µM	13.3 µM	39.5 µM	Cc1cc(N)nc(C[C@@H]2CNC[C@@H]2OCc2ccc(-c3cccc(F)c3)cc2)c1 (racemic)
1.2 µM	26 µM	55.6 µM	Cc1cc(N)nc(C[C@@H]2CNC[C@@H]2OCc2ccc(-c3cccc(Cl)c3)cc2)c1 (racemic)

Further lines, the molecule ahead of its results:

SMILES	Ki (Nitric oxide synthase 1)	Ki (Nitric oxide synthase 3)	Ki [1]
Nc1cccc(C[C@@H]2CNC[C@@H]2Oc2cccc(Oc3ccccc3)c2)n1 (racemic)	3 µM		
Cc1cc(N)nc(C[C@@H]2CNC[C@@H]2OCc2ccc(-c3cccc(C(F)(F)F)c3)cc2)c1 (racemic)		13.6 µM	37.3 µM
Cc1cc(N)nc(C[C@@H]2CNC[C@@H]2OCc2ccc(-c3ccc(F)c(C)c3)cc2)c1 (racemic)	0.62 µM		22.1 µM
Cc1cc(N)nc(C[C@@H]2CNC[C@@H]2OCc2ccc(-c3ccc(F)c(Cl)c3)cc2)c1 (racemic)	0.76 µM		
